“Also recorded” adds a separate entry of the source. Blank lines part the entries; values can stand above or below the compound they belong to.
Columns and labels:
[1] = tested on: NF-κB; assay: NF-κB luciferase assay in PANC1 cells; assay type: cell-based; settings: increasing concentrations
Text: (§1) Previously, it was discovered that PRMT5 activates NF-κB through methylation of its p65 subunit in HEK293 cells (Wei et al., Proc Natl Acad Sci USA, 2013; 110: 13516-13521; Wei et al., Cell Cycle, 2013; 13: 32-41). As shown in FIGS. 11A and 11B, overexpression of PRMT5 enhances NF-κB activity, while PRMT5 knockdown causes the opposite effect in both PANC1 (FIG. 11A) and HT-29 (FIG. 11B) cells. To determine if compound (IIa) decreases NF-κB activity, cells transfected with a NF-κB luciferase construct were treated with increasing concentrations of compound (IIa) or the control compound EPZ015666.

[2] = tested on: PDAC cells (PANC1, MiaPaCa2 and AsPC1); assay: MTT cell viability assay in PDAC cell lines; assay type: cell-based; settings: for cell viability in PDAC cells (PANC1, MiaPaCa2, AsPC1), MTT: increasing concentrations; for IC50: range over PANC1, MiaPaCa2 and AsPC1
Experimental: (§2) The PRMT5 inhibitory activity of the compounds from the screen was confirmed using both AlphaLISA and an MTT [(3-(4,5-dimethylthiazolyl-2)-2,5-diphenyltetrazolium bromide)] assay (PerkinElmer, Waltham, MA). For the MTT assay, cells were seeded at 90% confluence in 96-well plates and titrated with different dosages of compound (IIa) for 4 days. Media was then removed and 100 μl of MTT (Sigma-Aldrich, St. Louis, MO) was added per well. Cells were incubated for 2 hours at 37° C. before adding 100 μl of DMSO to each well and quantified with the SYNERGY™ H1 Multi-Mode Reader (BioTek Instruments Inc., Winooski, VT). The expression of PRMT5 was examined in pancreatic ductal adenocarcinoma cells at multiple stages of disease progression and in multiple colorectal cancer cell lines. Pancreatic control (HPNE) and cancer cell lines (PANC1, MiaPaCa2 and AsPC1) were grown in Dulbecco's Modified Eagle Medium (DMEM) (GE Healthcare, Little Chalfont, UK), supplemented with 1% of penicillin/streptomycin, 10% fetal bovine serum (FBS). Colon control (FHC) and cancer (HT29, HCT116, and DLD1) cell lines were maintained in RPMI 1640 Medium (Roswell Park Memorial Institute Medium) (GE Healthcare, Little Chalfont, UK), containing 1% penicillin/streptomycin and 10% FBS, while FHC cells were cultured under the same condition with further addition of 25 mM HEPES (4-(2-hydroxyethyl)-1-piperazineethanesulfonic acid), 10 ng/ml cholera toxin, 0.005 mg/ml insulin, 0.005 mg/ml transferring, and 100 ng/ml hydrocortisone. All cell lines were cultured at 37° C. under 5% CO2. The PDAC and CRC cell lines described above were treated with increasing concentrations of compound (IIa) or the commercially available PRMT5 inhibitor EPZ015666 [drawing 12] and quantified for cell viability using the MTT assay described above. […] A soft agar experiment was also performed to determine the effect of compound (IIa) on colony growth.

[3] = tested on: CRC cells (HT29, HCT116 and DLD1); assay: MTT cell viability assay in CRC cell lines; assay type: cell-based; settings: for cell viability in CRC cells (HT29, HCT116, DLD1), MTT: increasing concentrations; for IC50: range over HT29, HCT116 and DLD1
Experimental: as §2

[4] = tested on: NF-κB; assay: NF-κB luciferase assay in HT29 cells; assay type: cell-based; settings: increasing concentrations
Text: as §1

[5] = target: T1, PRMT5 (Homo sapiens, UniProt O14744); assay: AlphaLISA PRMT5 methylation assay (biotin-histone H4R3, SAM); assay type: biochemical; settings: PRMT5 methylation of histone H4R3, in vitro; read-out: IC50 using AlphaLISA
T1 construct: Flag; made in house; host or cells: 293 cells
T1 sequence (O14744 whole entry): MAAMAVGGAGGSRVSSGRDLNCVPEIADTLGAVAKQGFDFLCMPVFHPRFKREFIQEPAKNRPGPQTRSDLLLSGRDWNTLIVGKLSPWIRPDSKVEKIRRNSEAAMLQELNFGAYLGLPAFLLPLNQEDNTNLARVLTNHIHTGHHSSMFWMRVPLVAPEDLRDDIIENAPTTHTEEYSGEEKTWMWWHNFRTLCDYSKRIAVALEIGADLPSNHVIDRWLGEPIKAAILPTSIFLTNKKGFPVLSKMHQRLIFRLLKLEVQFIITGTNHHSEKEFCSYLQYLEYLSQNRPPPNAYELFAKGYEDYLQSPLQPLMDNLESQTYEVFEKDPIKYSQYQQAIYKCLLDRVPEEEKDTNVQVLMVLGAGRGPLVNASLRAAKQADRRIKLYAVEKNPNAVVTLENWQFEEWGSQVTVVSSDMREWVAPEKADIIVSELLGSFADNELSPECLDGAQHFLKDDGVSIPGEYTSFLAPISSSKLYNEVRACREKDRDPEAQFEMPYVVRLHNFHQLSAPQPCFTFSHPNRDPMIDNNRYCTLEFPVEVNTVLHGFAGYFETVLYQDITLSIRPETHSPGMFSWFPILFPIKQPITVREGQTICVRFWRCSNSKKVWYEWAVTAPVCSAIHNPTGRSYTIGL
T1 sequence (Q9BQA1 whole entry partner): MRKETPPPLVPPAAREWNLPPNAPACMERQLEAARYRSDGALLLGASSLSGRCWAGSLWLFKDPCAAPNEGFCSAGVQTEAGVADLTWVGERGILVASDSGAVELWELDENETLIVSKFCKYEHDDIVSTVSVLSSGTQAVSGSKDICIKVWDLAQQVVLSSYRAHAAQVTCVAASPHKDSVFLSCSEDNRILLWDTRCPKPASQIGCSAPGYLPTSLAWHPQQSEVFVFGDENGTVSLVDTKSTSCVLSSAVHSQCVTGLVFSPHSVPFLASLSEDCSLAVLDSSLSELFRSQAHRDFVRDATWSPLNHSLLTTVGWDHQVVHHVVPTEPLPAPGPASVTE
Experimental: FIG. 1 is a schematic illustration of the AlphaLISA technique for the identification of small-molecule PRMT5 inhibitors. Biotinylated substrate (histone H4) is incubated with PRMT5 and methyl donor, S-adenosyl-1-methionine (SAM). PRMT5 symmetrically dimethylates the third arginine (R3) on biotin-H4 to form biotin-H4R3me2. This product is recognized by Acceptor beads specific for this methylation site. Donor beads have a streptavidin tag and bind to biotin-H4. Interaction between the Acceptor and Donor beads emits a chemiluminescent signal, which is detected by an ENVISION™ Reader (PerkinElmer, Waltham, MA). The methylation activity of PRMT5 is proportional to the intensity of this signal.
In order to identify PRMT5 inhibitors, the AlphaLISA technique (PerkinElmer, Waltham, MA) was adapted to an assay that could precisely quantify PRMT5 dimethylation of its substrate in a 384-well HTS platform (FIG. 1). The AlphaLISA high-throughput screen comprises incubating a biotinylated substrate (e.g., histone H4), PRMT5, and a methyl donor (e.g., S-adenosyl-1-methionine (SAM)); PRMT5 dimethylates the biotinylated substrate and the dimethylated biotinylated substrate is recognized by Acceptor beads specific for the methylation site. Donor beads comprising a tag (e.g., streptavadin) bind to the biotinylated substrate, and interaction between the Acceptor beads and Donor beads emits a signal (e.g., chemiluminescent signal), which can be detected. The methylation activity of PRMT5 is proportional to the intensity of the signal.
In one embodiment of the method used to identify the compounds disclosed herein, PRMT5 enzyme was purified with anti-Flag-M2 beads (Sigma-Aldrich, St. Louis, MO) from 293 cells overexpressing the Flag-PRMT5 protein (Wei et al., Proc Natl Acad Sci USA, 2013; 110: 13516-13521). The enzyme prep was diluted at 1:10 in assay buffer (30 mM Tris, pH 8.0, 1 mM DTT, 0.01% BSA, 0.01% Tween-20) before use. […] The plates were read using an ENVISION™ Reader (PerkinElmer, Waltham, MA).

[6] = tested on: PANC1 cells; assay: PANC1 subcutaneous xenograft tumor efficacy study in NSG mice; assay type: in vivo; settings: 20 mg/kg intraperitoneally 3×/week, vs vehicle control, n=4
Experimental: (§3) NSG (NOD scid gamma) mice were obtained from the In Vivo Therapeutics Core at Indiana University School of Medicine. After acclimation for 7 days, NSG mice (6-8 weeks old) were xenografted with mycoplasma-free PANC1 or HT29 cells subcutaneously (1×10^7 PANC1 or 3×10^6 HT29 cells used per mouse in 0.2 ml of a 1:1 mix of phosphate-buffered saline and MATRIGEL™) (BD Biosciences, San Jose, CA). Mice were randomized when tumor volumes reached about 100 mm^3. Mice were treated with either vehicle control or 20 mg/kg of compound (Ia) (drug stock dissolved in 1:1 CREMOPHOR™:ethanol solution) intraperitoneally 3 times per week. Tumor volumes and body weights were measured twice a week. The study was performed in accordance with the guidelines and standards of the Institutional Animal Care and Use Committee (IACUC). […] NSG (NOD scid gamma) mice were obtained from the In Vivo Therapeutics Core at Indiana University School of Medicine. After acclimation for 7 days, NSG mice (6-8 weeks old) were xenografted with mycoplasma-free PANC1 or HT29 cells subcutaneously (1×10^7 PANC1 or 3×10^6 HT29 cells used per mouse in 0.2 ml of a 1:1 mix of phosphate-buffered saline and MATRIGEL™) (BD Biosciences, San Jose, CA). Mice were randomized when tumor volumes reached about 100 mm^3. […] Tumor volumes and body weights were measured twice a week. […]

[7] = Body weight of xenografted NSG mice during treatment; assay type: in vivo; settings: 20 mg/kg intraperitoneally 3×/week, over the course of treatment
Experimental: NSG (NOD scid gamma) mice were obtained from the In Vivo Therapeutics Core at Indiana University School of Medicine. After acclimation for 7 days, NSG mice (6-8 weeks old) were xenografted with mycoplasma-free PANC1 or HT29 cells subcutaneously (1×10^7 PANC1 or 3×10^6 HT29 cells used per mouse in 0.2 ml of a 1:1 mix of phosphate-buffered saline and MATRIGEL™) (BD Biosciences, San Jose, CA). Mice were randomized when tumor volumes reached about 100 mm^3. Mice were treated with either vehicle control or 20 mg/kg of compound (Ia) (drug stock dissolved in 1:1 CREMOPHOR™:ethanol solution) intraperitoneally 3 times per week. Tumor volumes and body weights were measured twice a week. The study was performed in accordance with the guidelines and standards of the Institutional Animal Care and Use Committee (IACUC). […] NSG (NOD scid gamma) mice were obtained from the In Vivo Therapeutics Core at Indiana University School of Medicine. After acclimation for 7 days, NSG mice (6-8 weeks old) were xenografted with mycoplasma-free PANC1 or HT29 cells subcutaneously (1×10^7 PANC1 or 3×10^6 HT29 cells used per mouse in 0.2 ml of a 1:1 mix of phosphate-buffered saline and MATRIGEL™) (BD Biosciences, San Jose, CA). Mice were randomized when tumor volumes reached about 100 mm^3. Mice were treated with either vehicle control or 20 mg/kg of compound (IIa) (drug stock dissolved in 1:1 CREMOPHOR™:ethanol solution) intraperitoneally 3 times per week. Tumor volumes and body weights were measured twice a week. The study was performed in accordance with the guidelines and standards of the Institutional Animal Care and Use Committee (IACUC).

[8] = tested on: HT-29 colon cancer cells; assay: MTT cell viability assay in HT-29 cells; assay type: cell-based; settings: for IC50: 4 days treatment
Experimental: (§4) The PRMT5 inhibitory activity of the compounds from the screen was confirmed using both AlphaLISA and an MTT [(3-(4,5-dimethylthiazolyl-2)-2,5-diphenyltetrazolium bromide)] assay (PerkinElmer, Waltham, MA). For the MTT assay, cells were seeded at 90% confluence in 96-well plates and titrated with different dosages of compound (IIa) for 4 days. Media was then removed and 100 μl of MTT (Sigma-Aldrich, St. Louis, MO) was added per well. Cells were incubated for 2 hours at 37° C. before adding 100 μl of DMSO to each well and quantified with the SYNERGY™ H1 Multi-Mode Reader (BioTek Instruments Inc., Winooski, VT).
(§5) In order to identify small-molecule PRMT5 inhibitors with increased efficacy compared to compound (IIa), lead optimization of compound (IIa) was performed. Briefly, the pyrozolo-pyrimidine core was maintained and peripheral groups were either added or modified. Compounds were tested to identify PRMT5 inhibitors and their corresponding IC50 values using an MTT assay. For the MTT assay cells (HT-29 or PANC1) were seeded at 90% confluence in 96-well plates and titrated with different dosages of compound (IIa) for 4 days. Media was then removed and 100 μl of MTT (Sigma-Aldrich) was added per well. Cells were incubated for 2 hours at 37° C. before adding 100 μl of DMSO to each well and quantified with the Synergy H1 Multi-Mode Reader (BioTek Instruments Inc., Winooski, VT).

[9] = tested on: HT29 cells; assay: HT29 subcutaneous xenograft tumor efficacy study in NSG mice; assay type: in vivo; settings: 20 mg/kg intraperitoneally 3×/week, vs vehicle control, n=4
Experimental: as §3

[10] = tested on: PANC1 pancreatic cancer cells; assay: MTT cell viability assay in PANC1 cells; assay type: cell-based; settings: for IC50: 4 days treatment
Experimental: as §4, §5

Compound: O=C(NC[C@H](O)CN1CCc2ccccc2C1)c1cc(NC2COC2)ncn1 [EPZ015666, reference compound]
- NF-κB activation (luciferase), PANC1 [1]: much higher concentration; also recorded: needed a higher concentration
- cell viability in PDAC cells (PANC1, MiaPaCa2, AsPC1), MTT [2]: lower efficacy
- IC50 [2]: 50 to 95 µM
- cell viability in CRC cells (HT29, HCT116, DLD1), MTT [3]: lower efficacy
- IC50 [3]: 180 to 195 µM
- NF-κB activation (luciferase), HT29 [4]: much higher concentration; also recorded: needed a higher concentration

Compound: O=C(NC[C@H]1C[C@@H]2CC[N@@]1C[C@@H]2CN1CCC(Cc2ccccc2)CC1)c1ccc2c(c1)OCO2 [compound (IIIa)]
- IC50 [5]: ~1.5 µM
- cell viability in PDAC cells (PANC1, MiaPaCa2, AsPC1), MTT [2]: decreased significantly
- IC50 [2]: 8.5 to 12.5 µM
- cell viability in CRC cells (HT29, HCT116, DLD1), MTT [3]: decreased significantly
- IC50 [3]: 5 to 11 µM

Compound: COc1cc(C)c(Oc2cc(C)cc(O)c2O)c(O)c1 [compound (IVa)]
- IC50 [5]: ~16.5 µM
- cell viability in PDAC cells (PANC1, MiaPaCa2, AsPC1), MTT [2]: decreased significantly
- IC50 [2]: 22 to 51 µM
- cell viability in CRC cells (HT29, HCT116, DLD1), MTT [3]: decreased significantly
- IC50 [3]: 35 to 50 µM

Compound: Cc1ccc(-n2ncc3c(NCc4cccnc4)nc(Cl)nc32)cc1 [compound (Ia)]
- tumor growth (tumor volume), PANC1 xenograft [6]: significant tumor inhibition effect; also recorded: inhibition of tumor growth
- body weight, HT29 model [7]: did not visibly affect the body weight; also recorded: no significant changes in body weight
- body weight, PANC1 model [7]: did not visibly affect the body weight; also recorded: no significant changes in body weight
- IC50 [8]: 2.2 µM
- IC50 ([8]; Homo sapiens, HT-29, 96 h): 2 µM
- cell viability in CRC cells (HT29), MTT ([8]; increasing concentrations): decreased significantly
- tumor growth (tumor volume), HT29 xenograft [9]: significant tumor inhibition effect; also recorded: inhibition of tumor growth
- cell viability in PDAC cells (PANC1), MTT ([10]; increasing concentrations): decreased significantly

Results, then the compound that gave them:

- IC50 ([10]; Homo sapiens, PANC-1, 96 h): 11 µM
Compound: Clc1ccc(-n2ncc3c(NCCN4CCCC4)nc(Cl)nc32)cc1 [compound (Ib)]

- IC50 ([8]; Homo sapiens, HT-29, 96 h): 7 µM
- IC50 ([10]; Homo sapiens, PANC-1, 96 h): 8 µM
Compound: Clc1ccc(-n2ncc3c(NCC4CCCO4)nc(Cl)nc32)cc1 (centres unmarked) [compound (If)]

- IC50 [8]: 7 µM
- IC50 [10]: 11 µM
Compound: Clc1ccc(-n2ncc3c(NCC4CCCO4)nc(Cl)nc32)cc1 (centres unmarked) [compound (Ig)]

Reference: patent publication US12516052B2, “Methyltransferase 5 (PRMT5) inhibitors and methods of treatment” (THE TRUSTEES OF INDIANA UNIVERSITY, priority 2016, dated 2026)
